Experimental data: publication PMC12095047, “Transport of phenoxyacetic acid herbicides by PIN-FORMED auxin transporters” (Nature Plants, 2025)
Several values for one entry are separate records, joined by “and”; a condition that tells them apart may be missing. Identical values can stand only once. Like-named read-outs stand apart in the source and are kept apart here.

How the values were obtained:
PIN8 N117A = biological target: T1, PIN8 N117A (Arabidopsis thaliana, UniProt Q9LFP6, N117A); experiment: SSM electrophysiology peak current, PIN8 N117A proteoliposomes; assay type: biochemical; conditions: Substrate IAA, replicates
T1 construct: made in house
T1 sequence (Q9LFP6 whole entry N117A): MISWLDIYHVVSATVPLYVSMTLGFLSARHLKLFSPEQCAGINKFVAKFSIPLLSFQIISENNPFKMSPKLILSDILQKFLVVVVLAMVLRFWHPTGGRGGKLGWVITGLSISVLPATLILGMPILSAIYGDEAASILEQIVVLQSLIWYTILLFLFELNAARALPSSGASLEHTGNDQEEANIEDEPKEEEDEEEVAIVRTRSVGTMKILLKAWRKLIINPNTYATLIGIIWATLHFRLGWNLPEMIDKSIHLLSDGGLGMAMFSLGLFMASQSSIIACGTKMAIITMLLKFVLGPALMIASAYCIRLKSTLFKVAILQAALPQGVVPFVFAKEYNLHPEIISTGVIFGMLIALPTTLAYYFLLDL
Description: SSM, using a SURFE2R N1 from Nanion Technologies, was conducted as described. In brief, soy polar lipid mix (38% phosphatidyl choline, 30% phosphatidyl ethanolamine, 18% phosphatidyl inositol, 7% phosphatidic acid and 7% other soy lipids) and 1-palmitoyl-2-oleoyl-sn-glycero-3-phosphocholin were purchased from Avanti. Liposomes were prepared in Ringer solution without Ca^2+ (115 mM NaCl, 2.5 mM KCl, 1 mM NaHCO3, 10 mM HEPES pH7.4, 1 mM MgCl2) and homogenized using a Lipsofast (Avestin) with a […]. Triton X-100 was added to the liposomes to a final concentration of 1% (v/v). Protein was added to liposomes to a calculated lipid-to-protein ratio (LPR) of 10 unless stated otherwise. The detergent was removed using 400 mg ml^−1 Bio Beads (BioRad) overnight at 4 °C in a rotary shaker. Proteoliposomes were frozen in liquid nitrogen and kept at −80 °C until use. Proteoliposomes were diluted 1:5 in Ringer solution without Ca^2+, sonicated five times and then applied to the sensors by centrifugation (30 min, 3,000 g, 4 °C). Non-activating buffer was Ringer solution without Ca^2+ as described unless specified otherwise, and activating buffer contained the substrate of interest. In most instances we used a single-solution exchange experiment. In this case proteoliposomes, immobilized on the supported membrane, are kept in non-activating buffer as specified. At the beginning of the experiment the non-activating buffer is replaced with fresh identical non-activating buffer, and after 1 s, activating buffer (same buffer containing substrate) is added. After another second, the buffer is replaced with non-activating buffer again. Current response is recorded throughout the entire 3 s. For competition or inhibition, the respective compound was present in non-activating and activating solutions. Each experiment was performed on at least two individual sensors. On each sensor each measurement consists of three technical replicates where the mean is calculated. KD values were determined as described previously. Briefly, the binding current induced by 100 µM NPA was recorded in the presence of different concentrations of the substrate under investigation ranging between 0 µM and 1,000 µM present in the activating solution and the non-activating solution (Extended Data Fig. 5b). […] The maximum peak current was then plotted as a function of the concentration of the substrate under investigation and plotted against the degree of inhibition and fitted with a one-site binding model using GraphPad Prism V10.4.1 The half maximal concentration corresponds to the KD of the substrate under investigation.
The protocol for expression and purification of AtPIN8 protein (Uniprot: Q9LFP6) in lauryl maltose neopentyl glycol was described previously. All point mutants were generated using Q5 Site-Directed mutagenesis kit (New England Biolabs). The C-flat Holey Carbon grids (CF-1.2/1.3, Cu-300 mesh) were glow-discharged for 45 s at 15 mA in a GloQube Plus (Quorum). […] After 1 h of incubation on ice, the sample was centrifuged at 16,000 g for 15 min before blotting to remove precipitation. A drop of 4 µl of each sample was applied to the glow-discharged grids, blotted with a Vitrobot Mark IV (ThermoFisher Scientific) using the following settings (temperature 4 °C, 100% humidity, blot time of 4 s, blot force −1) and vitrified in liquid ethane.

A. thaliana PIN8 = biological target: T2, A. thaliana PIN8 (Arabidopsis thaliana, UniProt Q9LFP6); experiment: SSM electrophysiology, peak current response on PIN8 proteoliposomes; assay type: biochemical; conditions: for Peak current: WT, individual sensors; for Peak current (nA): Sensor 1-3
T2 construct: made in house
T2 sequence (Q9LFP6 1-367): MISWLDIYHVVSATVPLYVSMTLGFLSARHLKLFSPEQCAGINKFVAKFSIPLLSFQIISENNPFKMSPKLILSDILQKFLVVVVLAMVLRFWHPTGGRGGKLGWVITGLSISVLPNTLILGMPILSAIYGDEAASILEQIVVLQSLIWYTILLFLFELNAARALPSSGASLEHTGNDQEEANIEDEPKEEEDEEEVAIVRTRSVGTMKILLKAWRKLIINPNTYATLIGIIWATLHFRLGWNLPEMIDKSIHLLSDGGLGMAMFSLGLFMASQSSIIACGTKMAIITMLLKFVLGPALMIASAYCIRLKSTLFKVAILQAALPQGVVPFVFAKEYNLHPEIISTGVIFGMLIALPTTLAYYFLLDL

PIN8 = biological target: T3, PIN8 (Arabidopsis thaliana, UniProt Q9LFP6); experiment: SSM electrophysiology, KD by inhibition of the NPA binding current; conditions: individual sensors
T3 construct: made in house
T3 sequence (Q9LFP6 1-367): T2 sequence (Q9LFP6 1-367)

PIN8 Y150F = biological target: T4, PIN8 Y150F (Arabidopsis thaliana, UniProt Q9LFP6, Y150F); assay type: biochemical
T4 construct: made in house
T4 sequence (Q9LFP6 whole entry Y150F): as the sequence (Q9LFP6 whole entry N117A) above, with A117N, Y150F counted along it

PIN8 S146A = biological target: T5, PIN8 S146A (Arabidopsis thaliana, UniProt Q9LFP6, S146A); assay type: biochemical; conditions: for Peak current: individual sensors
T5 construct: made in house
T5 sequence (Q9LFP6 whole entry S146A): as the sequence (Q9LFP6 whole entry N117A) above, with A117N, S146A counted along it

PIN8 Y150A = biological target: T6, PIN8 Y150A (Arabidopsis thaliana, UniProt Q9LFP6, Y150A); assay type: biochemical; conditions: for Peak current: Y150A, individual sensors
T6 construct: made in house
T6 sequence (Q9LFP6 whole entry Y150A): as the sequence (Q9LFP6 whole entry N117A) above, with A117N, Y150A counted along it

PIN8 S266A = biological target: T7, PIN8 S266A (Arabidopsis thaliana, UniProt Q9LFP6, S266A); assay type: biochemical; conditions: for Peak current: S266A, individual sensors
T7 construct: made in house
T7 sequence (Q9LFP6 whole entry S266A): as the sequence (Q9LFP6 whole entry N117A) above, with A117N, S266A counted along it

[1] = biological target: T8, wild-type PIN8 proteoliposomes (Arabidopsis thaliana, UniProt Q9LFP6); experiment: SSM electrophysiology, peak width (FWHM) of current response at LPR10 and LPR50; assay type: biochemical; conditions: for Rel. FWHM (% of LPR10): replicates
T8 construct: made in house
T8 sequence (Q9LFP6 1-367): T2 sequence (Q9LFP6 1-367)

[2] = WT PIN8 proteoliposomes, Michaelis–Menten fit

## O=C(O)Cc1c[nH]c2ccccc12 [IAA, indole-3-acetic acid]
PIN8 N117A; 100µM
  Relative Peak Current of WT (%): 3.5397% and 5.375% and 9.48% and 13.4511%
PIN8 N117A; 2mM
  Relative Peak Current of WT (%): 11.8985% and 14.7068% and 17.3968% and 15.4928%
A. thaliana PIN8; [2]
  EC50: 250 µM and 254 µM
  maximal current Imax: 18 ± 3 nA
A. thaliana PIN8; 5 µM substrate
  Peak current: 0.8096 nA and 0.6401 nA and 0.949 nA
A. thaliana PIN8; 20 µM substrate
  Peak current: 1.842 nA and 1.724 nA and 2.164 nA
A. thaliana PIN8; 50 µM substrate
  Peak current: 3.368 nA and 3.292 nA and 4.115 nA
A. thaliana PIN8; 100 µM substrate
  Peak current: 4.516 nA and 4.8122 nA and 5.921 nA
A. thaliana PIN8; 500 µM substrate
  Peak current: 9.827 nA and 10.2734 nA and 12.6135 nA
A. thaliana PIN8; 1000 µM substrate
  Peak current: 13.1379 nA and 13.1579 nA and 16.4113 nA
A. thaliana PIN8; 2000 µM substrate
  Peak current: 14.7357 nA and 15.0585 nA and 18.9117 nA
A. thaliana PIN8; [IAA] 5 µM
  Peak current (nA): 0.04999 nA and 0.08856 nA and 0.0843 nA
A. thaliana PIN8; [IAA] 50 µM
  Peak current (nA): 0.4222 nA and 0.6123 nA and 0.4745 nA
A. thaliana PIN8; [IAA] 100 µM
  Peak current (nA): 0.6662 nA and 0.8986 nA and 0.7119 nA
A. thaliana PIN8; [IAA] 500 µM
  Peak current (nA): 1.469 nA and 1.771 nA and 1.558 nA
A. thaliana PIN8; [IAA] 1000 µM
  Peak current (nA): 1.848 nA and 2.271 nA and 1.967 nA
A. thaliana PIN8; [IAA] 2000 µM
  Peak current (nA): 2.237 nA and 2.442 nA and 2.41 nA
PIN8; read-out: Rel. Inhibition of NPA peak currents, 5 µM substrate, 100 µM NPA
  inhibition at 5 µM: 14.1%
PIN8; read-out: Rel. Inhibition of NPA peak currents, 50 µM substrate, 100 µM NPA
  inhibition at 50 µM: 57%
PIN8; read-out: Rel. Inhibition of NPA peak currents, 100 µM substrate, 100 µM NPA
  inhibition at 100 µM: 77.9%
PIN8; read-out: Rel. Inhibition of NPA peak currents, 250 µM substrate, 100 µM NPA
  inhibition at 250 µM: 84.7%
PIN8; read-out: Rel. Inhibition of NPA peak currents, 500 µM substrate, 100 µM NPA
  inhibition at 500 µM: 94.3%
PIN8; read-out: Rel. Inhibition of NPA peak currents, 1000 µM substrate, 100 µM NPA
  inhibition at 1000 µM: 84.7%
PIN8; sheet F2A (Fig. 2a, KD of substrate binding), read-out: Peak current
  Kd: 38.8 µM and 54 µM and 24.3 µM
PIN8 Y150F; PIN8 Y150F, Michaelis–Menten fit
  Imax: 6 ± 2 nA
PIN8 Y150F; PIN8 Y150F, Michaelis–Menten fit, read-out: EC50 of peak current response
  EC50: 452 ± 32 µM
PIN8 Y150F; Y150F, direction shown by colour only
  fold-change difference to the respective EC50 of wildtype PIN8: ~ 2 fold
PIN8 S146A; PIN8 S146A, Michaelis–Menten fit
  Imax: 8 ± 2 nA
PIN8 S146A; PIN8 S146A, Michaelis–Menten fit, read-out: EC50 of peak current response
  EC50: 498 ± 191 µM
PIN8 S146A; S146A, 5 µM substrate
  Peak current: 0.4304 nA and 0.01967 nA and 0.2252 nA
PIN8 S146A; S146A, 20 µM substrate
  Peak current: 0.857 nA and 0.324 nA and 0.6461 nA
PIN8 S146A; S146A, 50 µM substrate
  Peak current: 1.458 nA and 0.6503 nA and 1.2348 nA
PIN8 S146A; S146A, 100 µM substrate
  Peak current: 2.021 nA and 0.7074 nA and 1.578 nA
PIN8 S146A; S146A, 500 µM substrate
  Peak current: 4.698 nA and 2.244 nA and 4.077 nA
PIN8 S146A; S146A, 1000 µM substrate
  Peak current: 6.329 nA and 3.684 nA and 6.024 nA
PIN8 S146A; S146A, 2000 µM substrate
  Peak current: 7.444 nA and 4.338 nA and 6.988 nA
PIN8 S146A; S146A, direction (higher or lower affinity) shown by colour only
  fold-change difference to the respective EC50 of wildtype PIN8: ~ 2 fold
PIN8 Y150A; PIN8 Y150A, Michaelis–Menten fit
  Imax: 4 ± 0.3 nA
PIN8 Y150A; PIN8 Y150A, Michaelis–Menten fit, read-out: EC50 of peak current response
  EC50: 1210 ± 298 µM
PIN8 Y150A; 5 µM substrate
  Peak current: 0.07393 nA and 0.1605 nA and 0.184 nA
PIN8 Y150A; 20 µM substrate
  Peak current: 0.162 nA and 0.2178 nA and 0.2518 nA
PIN8 Y150A; 50 µM substrate
  Peak current: 0.2702 nA and 0.3405 nA and 0.3285 nA
PIN8 Y150A; 100 µM substrate
  Peak current: 0.09437 nA and 0.3629 nA and 0.1017 nA
PIN8 Y150A; 500 µM substrate
  Peak current: 0.8668 nA and 1.165 nA and 0.6916 nA
PIN8 Y150A; 1000 µM substrate
  Peak current: 1.921 nA and 2.062 nA and 1.677 nA
PIN8 Y150A; 2000 µM substrate
  Peak current: 2.244 nA and 2.472 nA and 1.95 nA
PIN8 S266A; PIN8 S266A, Michaelis–Menten fit
  Imax: 4 ± 0.6 nA
PIN8 S266A; PIN8 S266A, Michaelis–Menten fit, read-out: EC50 of peak current response
  EC50: 578 ± 183 µM
PIN8 S266A; 5 µM substrate
  Peak current: 0.2201 nA and 0.07526 nA and 0.1062 nA
PIN8 S266A; 20 µM substrate
  Peak current: 0.3015 nA and 0.4448 nA and 0.2134 nA
PIN8 S266A; 50 µM substrate
  Peak current: 0.4871 nA and 0.8571 nA and 0.3384 nA
[1]; LPR10
  Rel. FWHM (% of LPR10): 1.043 % of LPR10 and 0.9783 % of LPR10 (2×)
[1]; LPR10 versus LPR50
  peak width of SSM-based current response as a function of lipid-to-protein ratio (LPR): vary with lipid-to-protein ratio (LPR)
[1]; LPR50
  Rel. FWHM (% of LPR10): 2.022 % of LPR10 (2×) and 1.957 % of LPR10
